Consider three compounds from US20220009920A1 (GB005, Inc., priority 2020, published 2022).

Holding throughout (assay): Large panel kinase profiling
Assay type in all cases: biochemical
Settings in all cases: 1 μM test article, 1 mM ATP

The target in one test is T1, MAPK13/P38D (Homo sapiens, UniProt O15264).
T1 construct: AssayQuant Technologies, Inc. (service provider)
T1 sequence (O15264 1-365): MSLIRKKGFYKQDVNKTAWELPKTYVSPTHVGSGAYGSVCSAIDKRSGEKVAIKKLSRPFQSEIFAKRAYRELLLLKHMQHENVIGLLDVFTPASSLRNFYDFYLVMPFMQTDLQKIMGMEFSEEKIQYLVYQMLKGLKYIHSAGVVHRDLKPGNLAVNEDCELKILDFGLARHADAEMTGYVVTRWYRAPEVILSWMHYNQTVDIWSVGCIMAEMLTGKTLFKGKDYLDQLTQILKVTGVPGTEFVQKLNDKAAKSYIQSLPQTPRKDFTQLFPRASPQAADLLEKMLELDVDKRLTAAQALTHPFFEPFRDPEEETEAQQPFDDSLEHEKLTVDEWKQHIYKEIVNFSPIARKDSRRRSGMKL
The essentials:
(§1)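 One compound concentration (1 μM) was screened against each kinase at 1 mM ATP using PhosphoSens CSox-Sensor detection, at 30° C., with fluorescence read every 1 min (Ex 360 nm/Em 485 nm).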

Another test deals with T2, EIF2AK2/PKR (Homo sapiens, UniProt P19525).
T2 construct: AssayQuant Technologies, Inc. (service laboratory)
T2 sequence (P19525 whole entry): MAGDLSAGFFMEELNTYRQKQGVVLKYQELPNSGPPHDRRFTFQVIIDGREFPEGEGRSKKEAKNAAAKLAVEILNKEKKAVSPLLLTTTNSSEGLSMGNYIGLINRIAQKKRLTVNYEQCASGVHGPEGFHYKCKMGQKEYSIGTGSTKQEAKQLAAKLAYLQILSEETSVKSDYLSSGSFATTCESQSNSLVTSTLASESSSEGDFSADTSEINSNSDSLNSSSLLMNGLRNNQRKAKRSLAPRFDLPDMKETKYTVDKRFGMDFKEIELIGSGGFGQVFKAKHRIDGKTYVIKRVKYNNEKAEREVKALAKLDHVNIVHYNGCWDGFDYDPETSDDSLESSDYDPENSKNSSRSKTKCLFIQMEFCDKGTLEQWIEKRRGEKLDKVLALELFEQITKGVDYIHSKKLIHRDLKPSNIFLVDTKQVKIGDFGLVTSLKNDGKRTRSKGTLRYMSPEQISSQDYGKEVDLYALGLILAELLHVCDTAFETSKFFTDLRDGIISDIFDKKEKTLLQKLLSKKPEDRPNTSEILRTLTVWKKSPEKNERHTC
The essentials:
as §1

A further test addresses T3, MAP4K4/HGK (Homo sapiens, UniProt O95819).
T3 construct: AssayQuant Technologies, Inc. (service provider)
A digest of the protocol:
as §1

The next test has as its target PRKCB1/PKCB1 (Homo sapiens, UniProt P05771). A digest of the protocol: as §1
The next test addresses T4, EPHA1 (Homo sapiens, UniProt P21709).
T4 sequence (P21709 26-976): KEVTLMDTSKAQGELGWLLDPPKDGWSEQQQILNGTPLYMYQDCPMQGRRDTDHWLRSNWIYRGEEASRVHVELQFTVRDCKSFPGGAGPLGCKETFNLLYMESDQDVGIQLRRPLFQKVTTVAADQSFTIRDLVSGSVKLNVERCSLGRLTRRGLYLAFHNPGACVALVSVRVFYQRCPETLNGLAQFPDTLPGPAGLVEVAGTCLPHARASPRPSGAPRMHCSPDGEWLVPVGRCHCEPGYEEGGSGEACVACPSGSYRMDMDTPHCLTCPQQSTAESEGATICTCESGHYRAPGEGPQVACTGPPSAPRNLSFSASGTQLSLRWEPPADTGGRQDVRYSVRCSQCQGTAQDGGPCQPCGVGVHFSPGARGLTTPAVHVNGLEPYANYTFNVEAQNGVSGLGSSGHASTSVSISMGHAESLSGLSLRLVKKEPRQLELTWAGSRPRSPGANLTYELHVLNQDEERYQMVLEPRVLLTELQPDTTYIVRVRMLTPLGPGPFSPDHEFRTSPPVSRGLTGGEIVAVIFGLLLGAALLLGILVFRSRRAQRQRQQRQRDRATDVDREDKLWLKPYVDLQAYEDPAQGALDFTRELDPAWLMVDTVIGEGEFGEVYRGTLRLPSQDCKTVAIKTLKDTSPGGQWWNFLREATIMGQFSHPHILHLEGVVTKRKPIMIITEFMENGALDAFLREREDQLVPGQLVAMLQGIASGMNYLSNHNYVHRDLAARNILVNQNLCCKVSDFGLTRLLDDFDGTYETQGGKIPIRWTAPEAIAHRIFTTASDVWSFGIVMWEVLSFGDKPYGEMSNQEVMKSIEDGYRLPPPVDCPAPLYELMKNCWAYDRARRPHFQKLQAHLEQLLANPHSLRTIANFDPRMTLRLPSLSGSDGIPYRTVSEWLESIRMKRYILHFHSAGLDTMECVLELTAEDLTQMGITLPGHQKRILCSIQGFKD
A digest of the protocol:
as §1

The next test addresses T5, PRKCE/PKCE (Homo sapiens, UniProt Q02156).
T5 sequence (Q02156 1-737): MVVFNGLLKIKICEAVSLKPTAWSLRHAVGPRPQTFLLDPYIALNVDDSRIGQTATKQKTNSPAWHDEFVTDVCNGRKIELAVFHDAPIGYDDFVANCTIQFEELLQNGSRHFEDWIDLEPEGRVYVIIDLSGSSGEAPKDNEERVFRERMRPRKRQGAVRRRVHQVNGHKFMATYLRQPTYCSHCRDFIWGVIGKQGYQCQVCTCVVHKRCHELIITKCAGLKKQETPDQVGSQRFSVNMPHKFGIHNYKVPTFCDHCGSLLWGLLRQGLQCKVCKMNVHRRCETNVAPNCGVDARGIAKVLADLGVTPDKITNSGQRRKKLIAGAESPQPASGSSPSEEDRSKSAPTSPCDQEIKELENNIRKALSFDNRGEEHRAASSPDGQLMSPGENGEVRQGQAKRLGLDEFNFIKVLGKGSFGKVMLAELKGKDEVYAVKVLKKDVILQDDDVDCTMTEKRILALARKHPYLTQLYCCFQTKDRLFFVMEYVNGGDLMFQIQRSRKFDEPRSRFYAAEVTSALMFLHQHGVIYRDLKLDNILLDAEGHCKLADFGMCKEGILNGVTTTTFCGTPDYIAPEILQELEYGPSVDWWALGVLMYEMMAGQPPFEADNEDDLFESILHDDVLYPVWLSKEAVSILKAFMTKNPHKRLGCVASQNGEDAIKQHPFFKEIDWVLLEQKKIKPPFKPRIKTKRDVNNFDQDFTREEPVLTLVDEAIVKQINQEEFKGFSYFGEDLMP
A digest of the protocol: as §1

A further test addresses PKN1 (Homo sapiens, UniProt Q16512). A digest of the protocol: as §1

T3 sequence (O95819 whole entry): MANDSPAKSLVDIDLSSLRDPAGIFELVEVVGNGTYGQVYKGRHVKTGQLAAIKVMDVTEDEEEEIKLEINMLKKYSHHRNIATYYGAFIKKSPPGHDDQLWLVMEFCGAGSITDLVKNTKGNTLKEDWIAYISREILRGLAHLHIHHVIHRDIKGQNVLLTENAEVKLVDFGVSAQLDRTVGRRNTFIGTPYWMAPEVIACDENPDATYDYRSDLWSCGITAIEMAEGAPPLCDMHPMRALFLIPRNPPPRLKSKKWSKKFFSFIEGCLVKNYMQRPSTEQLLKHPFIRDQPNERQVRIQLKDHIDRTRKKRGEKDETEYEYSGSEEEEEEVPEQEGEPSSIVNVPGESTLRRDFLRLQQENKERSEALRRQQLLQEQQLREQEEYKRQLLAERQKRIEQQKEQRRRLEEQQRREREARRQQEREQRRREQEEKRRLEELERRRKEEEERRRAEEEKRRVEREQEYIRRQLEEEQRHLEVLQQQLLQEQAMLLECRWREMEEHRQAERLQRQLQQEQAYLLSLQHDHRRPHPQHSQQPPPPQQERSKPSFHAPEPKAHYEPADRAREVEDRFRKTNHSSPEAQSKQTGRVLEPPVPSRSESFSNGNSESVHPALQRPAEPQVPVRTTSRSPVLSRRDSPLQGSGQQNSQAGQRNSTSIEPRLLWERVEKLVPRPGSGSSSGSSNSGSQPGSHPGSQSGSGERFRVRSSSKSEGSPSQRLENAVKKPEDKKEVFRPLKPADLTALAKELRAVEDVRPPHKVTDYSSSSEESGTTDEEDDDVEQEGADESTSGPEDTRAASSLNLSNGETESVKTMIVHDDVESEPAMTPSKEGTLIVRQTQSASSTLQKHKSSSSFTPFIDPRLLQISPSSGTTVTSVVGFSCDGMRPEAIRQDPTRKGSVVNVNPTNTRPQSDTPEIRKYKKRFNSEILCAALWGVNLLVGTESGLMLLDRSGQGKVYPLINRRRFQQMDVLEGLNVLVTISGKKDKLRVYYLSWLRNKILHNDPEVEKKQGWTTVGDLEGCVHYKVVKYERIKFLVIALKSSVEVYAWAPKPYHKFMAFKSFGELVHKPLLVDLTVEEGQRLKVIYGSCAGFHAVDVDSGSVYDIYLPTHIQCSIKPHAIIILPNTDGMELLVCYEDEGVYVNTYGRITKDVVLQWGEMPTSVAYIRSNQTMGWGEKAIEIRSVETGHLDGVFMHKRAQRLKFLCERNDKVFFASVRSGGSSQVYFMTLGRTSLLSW
PKN1, sequence (Q16512 whole entry, species assumed): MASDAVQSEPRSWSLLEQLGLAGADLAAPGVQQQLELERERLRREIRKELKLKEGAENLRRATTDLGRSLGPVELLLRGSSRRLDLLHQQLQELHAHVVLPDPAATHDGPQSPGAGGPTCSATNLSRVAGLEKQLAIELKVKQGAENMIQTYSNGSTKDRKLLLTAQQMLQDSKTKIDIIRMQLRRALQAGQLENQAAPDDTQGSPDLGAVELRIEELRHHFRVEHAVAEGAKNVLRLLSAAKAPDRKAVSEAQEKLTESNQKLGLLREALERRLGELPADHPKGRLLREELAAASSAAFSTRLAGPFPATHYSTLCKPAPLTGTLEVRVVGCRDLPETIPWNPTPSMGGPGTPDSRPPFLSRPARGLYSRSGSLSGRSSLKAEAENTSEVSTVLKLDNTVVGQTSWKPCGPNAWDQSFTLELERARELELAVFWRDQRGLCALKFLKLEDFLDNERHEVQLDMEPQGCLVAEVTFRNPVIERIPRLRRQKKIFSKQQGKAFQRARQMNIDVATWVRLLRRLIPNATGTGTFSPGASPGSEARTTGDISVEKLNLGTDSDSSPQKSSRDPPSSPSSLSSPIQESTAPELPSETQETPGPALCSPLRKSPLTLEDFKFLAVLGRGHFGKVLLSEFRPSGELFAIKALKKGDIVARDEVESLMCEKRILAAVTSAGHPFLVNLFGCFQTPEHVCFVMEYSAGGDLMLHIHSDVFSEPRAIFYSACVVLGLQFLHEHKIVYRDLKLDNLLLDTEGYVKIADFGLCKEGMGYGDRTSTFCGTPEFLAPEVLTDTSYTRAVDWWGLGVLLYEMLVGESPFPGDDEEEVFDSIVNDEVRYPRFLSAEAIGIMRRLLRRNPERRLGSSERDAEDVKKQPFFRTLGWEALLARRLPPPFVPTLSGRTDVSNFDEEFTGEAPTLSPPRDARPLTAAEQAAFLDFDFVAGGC
PRKCB1/PKCB1, sequence (P05771 whole entry): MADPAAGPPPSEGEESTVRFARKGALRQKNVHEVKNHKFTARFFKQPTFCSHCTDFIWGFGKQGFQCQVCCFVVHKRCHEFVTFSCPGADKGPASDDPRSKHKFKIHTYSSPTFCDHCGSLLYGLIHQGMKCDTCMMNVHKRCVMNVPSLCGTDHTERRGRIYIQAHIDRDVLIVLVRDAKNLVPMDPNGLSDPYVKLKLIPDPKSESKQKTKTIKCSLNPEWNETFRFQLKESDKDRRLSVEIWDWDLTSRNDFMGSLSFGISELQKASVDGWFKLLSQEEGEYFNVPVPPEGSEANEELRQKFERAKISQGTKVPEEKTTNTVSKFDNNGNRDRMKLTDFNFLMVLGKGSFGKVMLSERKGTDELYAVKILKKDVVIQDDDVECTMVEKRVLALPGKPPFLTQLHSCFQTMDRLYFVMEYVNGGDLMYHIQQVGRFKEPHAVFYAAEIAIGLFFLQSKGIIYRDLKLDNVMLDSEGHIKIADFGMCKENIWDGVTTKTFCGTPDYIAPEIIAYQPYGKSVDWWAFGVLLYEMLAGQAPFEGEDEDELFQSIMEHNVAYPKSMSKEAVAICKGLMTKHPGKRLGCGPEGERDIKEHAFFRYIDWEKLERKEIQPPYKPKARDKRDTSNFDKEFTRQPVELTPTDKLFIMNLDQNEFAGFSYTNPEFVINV

Usually inhibition stands for the drop in the measured response relative to a control, in per cent. Regarding `C=CC(=O)N1CCCC(c2c(F)cc(C(N)=O)c3[nH]c4c(c23)CCCCC4)C1` (single isomer, unassigned) [Compound 5-6], the inhibition at 1 µM on MAPK13/P38D was 6.7%; against EIF2AK2/PKR, -28%; against MAP4K4/HGK, -22.7%; at PRKCB1/PKCB1, 8.6%; on EPHA1, 3.7%; against PRKCE/PKCE, -3.2%. Besides, the inhibition at 1 µM against PKN1 was 5.2%.

Regarding `C=CC(=O)N1CCC[C@@H](c2c(F)cc(C(N)=O)c3[nH]c4c(c23)CC2(CC4)CC2)C1` [Compound 6-2, (S)-5-(1-acryloylpiperidin-3-yl)-6-fluoro-1,2,4,9-tetrahydrospiro[carbazole-3,1′-cyclopropane]-8-carboxamide], the inhibition at 1 µM is 26% against MAPK13/P38D; -1.6% on EIF2AK2/PKR; 2.9% at MAP4K4/HGK; 8.9% at PRKCB1/PKCB1; 22% against EPHA1; 0% on PRKCE/PKCE. In addition, the inhibition at 1 µM at PKN1 is -10.2%.

Consider `C=CC(=O)N1CCC[C@@H](c2c(F)cc(C(N)=O)c3[nH]c4c(c23)CCC4)C1` [Compound 10-2, (S)-8-(1-acryloylpiperidin-3-yl)-7-fluoro-1,2,3,4-tetrahydrocyclo-penta[b]indole-5-carboxamide], for which the inhibition at 1 µM is 9% against MAPK13/P38D; 65.5% at EIF2AK2/PKR; -10.5% at MAP4K4/HGK; -9.4% against PRKCB1/PKCB1; 8.5% at EPHA1; -3.5% on PRKCE/PKCE. The inhibition at 1 µM against PKN1 was 12%.
